Measured values: ChEMBL document CHEMBL1201862, “PubChem BioAssay data set” (2004)
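Growth conditions: 96-well plates. Treatment: test compound, 48 hours, 5 concentrations. Analysis: linear interpolation between bracketing concentrations; unreached endpoints set to highest concentration. GI50 is the concentration that inhibits growth by half.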 Calls of active or inactive are those of the source. Rule as the data show it: active = GI50 up to about 1.1 µM and inactive = higher.

Columns and labels:
Assay in all cases: NCI-60 cell line screen, 48 h
IGROV-1 = tested on: IGROV-1
M19-MEL = tested on: M19-MEL
EKVX = tested on: EKVX
SK-MEL-5 = tested on: SK-MEL-5
KM12 = tested on: KM12
SK-MEL-28 = tested on: SK-MEL-28
RPMI-8226 = tested on: RPMI-8226
UACC-62 = tested on: UACC-62
SN12C = tested on: SN12C
LOX IMVI = tested on: LOX IMVI
K562 = tested on: K562
A498 = tested on: A498
U-251 = tested on: U-251
SR = tested on: SR
OVCAR-3 = tested on: OVCAR-3
BT-549 = tested on: BT-549
Hs-578T = tested on: Hs-578T
MDA-N = tested on: MDA-N
MDA-MB-435 = tested on: MDA-MB-435
T47D = tested on: T47D

Measured: GI50

CCOc1ccc(C(CN2CCOCC2)C(C)=O)cc1OC (stereo unspecified)
inactive: IGROV-1 25.2 µM | M19-MEL 18.9 µM | EKVX 22.6 µM | SK-MEL-5 20.1 µM | KM12 15.3 µM | SK-MEL-28 19.1 µM | RPMI-8226 11.5 µM | UACC-62 17.3 µM | SN12C 17.4 µM | LOX IMVI 17 µM | K562 3.1 µM | A498 26.5 µM | U-251 18 µM

CC(=O)Nc1ccc(C(=O)N2N=C(C)/C(=C\c3c(O)ccc4ccccc34)C2=O)cc1
inactive: SR 53.3 µM | M19-MEL 45.6 µM | EKVX > 100 µM | SK-MEL-5 35.4 µM | KM12 > 100 µM | SK-MEL-28 57.8 µM | RPMI-8226 56.8 µM | OVCAR-3 91.8 µM | SN12C 48.8 µM | LOX IMVI 59.8 µM | K562 74.8 µM

Cc1cccc(NC(=O)c2cc3cc(/N=N/c4ccccc4Cl)ccc3oc2=O)c1
inactive: IGROV-1 32.1 µM | M19-MEL 32.1 µM | EKVX 53.1 µM | SK-MEL-5 19.8 µM | KM12 15.4 µM | SK-MEL-28 35.4 µM | RPMI-8226 19.9 µM | OVCAR-3 26.8 µM | UACC-62 16.3 µM | SN12C 30.2 µM | LOX IMVI 10.4 µM | K562 61 µM | A498 > 100 µM | U-251 26.5 µM

Cc1cc(C)c(C2=NO[C@@H]3C(=O)N(c4ccc(Cc5ccc(N6C(=O)[C@H]7C(c8c(C)cc(C)cc8C)=NO[C@H]7C6=O)cc5)cc4)C(=O)[C@H]23)c(C)c1
inactive: IGROV-1 > 100 µM | M19-MEL > 100 µM | EKVX > 100 µM | SK-MEL-5 > 100 µM | KM12 > 100 µM | SK-MEL-28 > 100 µM | RPMI-8226 > 100 µM | OVCAR-3 > 100 µM | UACC-62 > 100 µM | SN12C > 100 µM | LOX IMVI > 100 µM | K562 > 100 µM | A498 > 100 µM

CCOP(=O)(OCC)C1C(=O)O[C@H]2CCCC[C@@H]12 (stereo partly specified)
inactive: IGROV-1 > 100 µM | M19-MEL > 100 µM | EKVX > 100 µM | SK-MEL-5 > 100 µM | KM12 > 100 µM | SK-MEL-28 > 100 µM | RPMI-8226 > 100 µM | OVCAR-3 > 100 µM | UACC-62 > 100 µM | SN12C > 100 µM | LOX IMVI > 100 µM | K562 > 100 µM | A498 > 100 µM | U-251 > 100 µM

c1ccc(COc2nc3cc(C45CC6CC(CC(C6)C4)C5)ccc3[nH]2)cc1
inactive: SR > 100 µM | IGROV-1 13.6 µM | BT-549 19.8 µM | Hs-578T 23 µM | EKVX 13.5 µM | SK-MEL-5 5.53 µM | KM12 15.5 µM | MDA-N 11.9 µM | MDA-MB-435 8.95 µM | SK-MEL-28 17.1 µM | RPMI-8226 5.07 µM | OVCAR-3 22.9 µM | UACC-62 7.13 µM | SN12C 18.5 µM | T47D 2.83 µM | LOX IMVI 12.1 µM | K562 1.19 µM | A498 23.3 µM | U-251 8.87 µM

Cc1cc(C)n(-c2c(O)ccc(O)c2-n2nc(C)cc2C)n1
inactive: IGROV-1 > 100 µM | M19-MEL 71.6 µM | EKVX > 100 µM | SK-MEL-5 > 100 µM | KM12 > 100 µM | SK-MEL-28 > 100 µM | RPMI-8226 > 100 µM | OVCAR-3 > 100 µM | UACC-62 > 100 µM | SN12C > 100 µM | LOX IMVI > 100 µM | K562 > 100 µM | A498 > 100 µM | U-251 > 100 µM

CC1=NN(C(=O)Cc2ccccc2)C(=O)/C1=C\c1ccccc1O
inactive: IGROV-1 > 100 µM | M19-MEL > 100 µM | EKVX > 100 µM | SK-MEL-5 > 100 µM | KM12 > 100 µM | SK-MEL-28 > 100 µM | RPMI-8226 > 100 µM | OVCAR-3 > 100 µM | UACC-62 > 100 µM | SN12C > 100 µM | LOX IMVI > 100 µM | K562 > 100 µM | A498 > 100 µM | U-251 > 100 µM

CN1CCCc2nc3ccccc3n2C1
inactive: IGROV-1 > 100 µM | M19-MEL > 100 µM | EKVX > 100 µM | SK-MEL-5 > 100 µM | KM12 > 100 µM | SK-MEL-28 > 100 µM | RPMI-8226 23.7 µM | OVCAR-3 > 100 µM | UACC-62 > 100 µM | SN12C > 100 µM | LOX IMVI > 100 µM | K562 > 100 µM | A498 > 100 µM | U-251 > 100 µM

CC(=O)NC1C(OCc2ccccc2)OC(CO)C(O)C1OCC(=O)NC(C(=O)NC(CCC(=O)NCCCCCC(=O)Nc1ccc2c(c1)CN1C(=O)c3ccccc3C1=N2)C(N)=O)C(C)C (stereo unspecified)
inactive: SR 88.1 µM | IGROV-1 20.3 µM | BT-549 21.6 µM | Hs-578T 23.7 µM | EKVX 31.6 µM | SK-MEL-5 21.4 µM | KM12 19.1 µM | MDA-N 62.7 µM | MDA-MB-435 31.6 µM | SK-MEL-28 20.8 µM | RPMI-8226 97.7 µM | OVCAR-3 67.6 µM | UACC-62 20.9 µM | SN12C > 100 µM | T47D 22.3 µM | LOX IMVI 34.4 µM | K562 36 µM | A498 24.9 µM | U-251 18.8 µM

CC1=NC=C(O)c2ccccc2O1
inactive: IGROV-1 > 100 µM | M19-MEL > 100 µM | EKVX > 100 µM | KM12 > 100 µM | SK-MEL-28 > 100 µM | RPMI-8226 > 100 µM | OVCAR-3 > 100 µM | UACC-62 > 100 µM | SN12C > 100 µM | LOX IMVI > 100 µM | K562 > 100 µM | A498 > 100 µM | U-251 > 100 µM

Cc1cccc(NC(=O)CCl)c1
inactive: SR 9.93 µM | IGROV-1 > 10 µM | BT-549 > 10 µM | Hs-578T > 10 µM | EKVX > 10 µM | SK-MEL-5 7.71 µM | KM12 > 10 µM | MDA-N > 10 µM | MDA-MB-435 9.02 µM | SK-MEL-28 > 10 µM | RPMI-8226 > 10 µM | OVCAR-3 6.4 µM | UACC-62 5.64 µM | SN12C 7.67 µM | T47D > 10 µM | LOX IMVI 6.19 µM | K562 6.11 µM | A498 > 10 µM | U-251 2.24 µM

CC(=O)OCC(=O)[C@@]12OC(C)(C)O[C@@H]1C[C@H]1[C@@H]3CC=C4C[C@@H](O)CC[C@]4(C)[C@H]3CC[C@@]12C
inactive: SR > 100 µM | IGROV-1 50.5 µM | BT-549 31.6 µM | Hs-578T 22.4 µM | EKVX 29.6 µM | SK-MEL-5 > 100 µM | KM12 > 100 µM | MDA-N > 100 µM | MDA-MB-435 > 100 µM | SK-MEL-28 > 100 µM | RPMI-8226 59.8 µM | OVCAR-3 > 100 µM | UACC-62 > 100 µM | SN12C 43.9 µM | T47D 35.5 µM | LOX IMVI > 100 µM | K562 > 100 µM | A498 32.1 µM | U-251 58.6 µM

CC1=CC(N2C(=O)C(C)=CC2O)NC1=O (stereo unspecified)
inactive: SR > 100 µM | M19-MEL > 100 µM | EKVX > 100 µM | KM12 > 100 µM | SK-MEL-28 > 100 µM | OVCAR-3 > 100 µM | SN12C > 100 µM | LOX IMVI > 100 µM | U-251 > 100 µM

Cc1cc(N(CCC#N)CCC#N)ccc1/C=C1/CN(N2C(=O)/C(=C/c3ccc(N(CCC#N)CCC#N)cc3C)N=C2c2ccccc2)C(c2ccccc2)=N1
inactive: SR > 100 µM | IGROV-1 > 100 µM | M19-MEL > 100 µM | EKVX > 100 µM | SK-MEL-5 > 100 µM | KM12 > 100 µM | SK-MEL-28 > 100 µM | OVCAR-3 > 100 µM | UACC-62 > 100 µM | SN12C > 100 µM | LOX IMVI > 100 µM | K562 > 100 µM | A498 > 100 µM | U-251 32 µM

CN1c2ccccc2N(C(=O)c2ccc(Cl)cc2)C(CC(=O)O)c2cccn21 (stereo unspecified)
inactive: IGROV-1 > 100 µM | M19-MEL > 100 µM | EKVX > 100 µM | SK-MEL-5 > 100 µM | KM12 > 100 µM | SK-MEL-28 > 100 µM | RPMI-8226 > 100 µM | OVCAR-3 > 100 µM | UACC-62 > 100 µM | SN12C > 100 µM | LOX IMVI > 100 µM | K562 > 100 µM | A498 > 100 µM

O=c1nc(/C=C/c2ccccc2Cl)cc2n1CCN2CCO
inactive: SR 50.1 µM | IGROV-1 > 100 µM | M19-MEL > 100 µM | EKVX > 100 µM | KM12 59.4 µM | SK-MEL-28 > 100 µM | RPMI-8226 > 100 µM | OVCAR-3 28.6 µM | UACC-62 > 100 µM | SN12C > 100 µM | LOX IMVI > 100 µM | K562 90.2 µM

Cc1cc(CC(=O)NCCO)n(CCO)c(=O)c1
inactive: SR > 100 µM | IGROV-1 > 100 µM | M19-MEL > 100 µM | SK-MEL-5 > 100 µM | KM12 > 100 µM | SK-MEL-28 > 100 µM | OVCAR-3 > 100 µM | UACC-62 > 100 µM | SN12C > 100 µM | LOX IMVI > 100 µM | K562 > 100 µM | U-251 > 100 µM
